Test results as given in patent US20130017537A1, “METHOD OF IN-VITRO IMMUNOASSAY” (BASF Beauty Care Solutions France S.A.S., priority 2011, published 2013).
Values joined by “and” are separate entries in the source; they are usually repeats but may differ in a detail not shown here. Equal entries are not always repeated.

Legend:
[1] = test system: type I collagen in the ECM; test: Assay of type I collagen in the ECM (anticollagen I antibody, europium TRF, Delfia) after NH4OH lysis of fibroblasts; format: cell-based, human; set-up: key to Coll I Mean: europium fluorescence normalized to measured dsDNA; settings: for Coll I (RFU) Mean: 48 hours, donor; for Versus control Mean (Coll I): control = 100.00; for Coll I Mean / Ratio: Coll I/DNA Mean / Stat Mean (Coll I/DNA, control = 100.00): ECM
Procedure: After 48 hours of culture postconfluency, the culture medium was removed and discarded. A lysis step was carried out: 110 μl of an ammonium hydroxide solution at 20 mM for 10 minutes at room temperature and with stirring. The lysate was collected and analysed. The double-stranded DNA contained in the lysate was assayed by using the bisbenzimide method (Picogreen Kit, Invitrogen). The collagen in the ECM was assayed directly on the ECM by using an anticollagen I antibody. A secondary antibody conjugated to europium was used with a detection reagent and the fluorescence was measured. (Delfia® kit—Perkin Elmer). The fluorescence results were rationalized relative to the measured dsDNA rate. The experiment was carried out according to the protocol described in example 1 with fibroblasts extracted from a biopsy from a donor. […] The experiment was carried out according to the protocol described in example 1 with fibroblasts extracted from a biopsy of a donor.

[2] = test system: type V collagen in the ECM; test: Assay of type V collagen in the ECM (anticollagen V antibody, europium TRF, Delfia) after NH4OH lysis of fibroblasts; format: cell-based, human; settings: for Coll V (RFU) Mean: 48 hours, donor; for Versus control Mean (Coll V): control = 100.00
Procedure: A lysis step was carried out: 110 μl of an ammonium hydroxide solution at 20 mM for 10 minutes at room temperature and with stirring. The collagen V in the ECM was assayed directly on the ECM by using an anticollagen V antibody. A secondary antibody conjugated to europium was used with a detection reagent and the fluorescence was measured. (Delfia® kit—Perkin Elmer). The experiment was carried out according to the protocol described in example 1 with fibroblasts extracted from a biopsy from a donor.

[3] = test system: extracellular procollagen; test: Procollagen ELISA (PIPc kit) on collected culture medium; format: cell-based, human
Procedure: The method described in example 1 was applied and the culture medium and lysis medium collected were analysed. On the collected culture medium, a procollagen assay was carried out (PIPc kit, TAKARA) by ELISA for determining the amount of extracellular procollagen (Table 4.1) The amounts of collagen and procollagen measured were rationalized to the amount of DNA present in each well. In experiment 6, procollagen was assayed in the culture medium collected in step b) in accordance with the method described in example 4.

[4] = test system: intracellular procollagen; test: Procollagen ELISA (PIPc kit) on collected lysis medium; format: cell-based, human; settings: for Procoll Mean (intracellular procollagen) / Ratio: Procoll/DNA Mean / Stat Mean (Procoll/DNA, control = 100.00): lysis medium
Procedure: The method described in example 1 was applied and the culture medium and lysis medium collected were analysed. On the collected lysis medium, a procollagen assay (PIPc kit, TAKARA) by ELISA is carried out for determining the amount of intracellular procollagen (Table 4.2). A DNA assay (Picogreen kit, Invitrogen) was also carried out for rationalizing all of the measurements in each well to the quantity of viable cells. The amounts of collagen and procollagen measured were rationalized to the amount of DNA present in each well.

normal human fibroblasts = test: Double-stranded DNA assay in the cell lysate (bisbenzimide, Picogreen) for quantity of viable cells; format: cell-based; set-up: unit not given here
Procedure: The lysate was collected and analysed. The double-stranded DNA contained in the lysate was assayed by using the bisbenzimide method (Picogreen Kit, Invitrogen). On the collected lysis medium, a procollagen assay (PIPc kit, TAKARA) by ELISA is carried out for determining the amount of intracellular procollagen (Table 4.2). A DNA assay (Picogreen kit, Invitrogen) was also carried out for rationalizing all of the measurements in each well to the quantity of viable cells.

collagen I = test: Immunohistochemical analysis of collagen I (confocal fluorescence); format: cell-based, human; settings: 50 μM; 72 h
Procedure: After 72 h culture postconfluency, the culture medium was removed and immunolabelling was performed. The polyclonal anti-collagen I primary antibody was applied, then after removal of the medium the secondary antibody conjugated to a fluorochrome alexa 488 is added. The fluorescence was examined under the LSM700 confocal microscope.

[5] = test system: type V collagen in the ECM; test: Influence of the lysis solution on the assay of type V collagen in the ECM; format: cell-based, human; settings: for Ratio: Coll/DNA % (NH4OH = 100): repeat experiment, Table 3.2; for Ratio: Coll/DNA % (20 mM = 100.00): Table 3.3
Procedure: Thus, normal human fibroblasts obtained from abdominal biopsies were seeded in a 96-well plate and cultured in a defined medium (FGM) to 100% confluency.
After 48 hours of culture postconfluency at 37° C. under 0.5% CO2, the culture medium was collected.
The time of application of the lysis solution tested was 10 minutes at room temperature and with stirring.
The collagen V in the ECM was assayed directly on the ECM by using an anticollagen V antibody. A secondary antibody conjugated to europium was used with a detection reagent and the fluorescence was measured. (Delfia® kit—Perkin Elmer).
The experiment was repeated and the lysis solutions tested were as follows: • solution according to the invention NH4OH: 110 μl of an ammonium hydroxide solution at concentrations between 200 μM and 2 M. • Solution of monoethylamine at 20 Mm • Solution of diethylamine at 20 mM • Solution of triethylamine at 20 mM

[6] = ascorbic acid 0.1 μM, Example 4
[7] = ascorbic acid 100 μM, Example 5
[8] = ascorbic acid 100 μM, Example 4

## O=C1O[C@H]([C@@H](O)CO)C(O)=C1O [Ascorbic acid, ascorbic acid]
[1]; 50 μM, Example 6
  Coll I (RFU) Mean: 169132 RFU
  Ratio: Coll/DNA Mean (Coll I): 340.49
  Versus control Mean (Coll I): 119.53
[1]; Example 4, 0.1 to 100 μM
  effect of stimulation on the content of collagen I in the ECM (dose dependence): dose-dependent up to 50 μM
[1]; Example 5, 5 to 100 μM tested
  optimum dose for efficacy, collagen I assay: 50 µM
[1]; Example 5, collagen I and V in the ECM
  stimulation of the synthesis of collagen I and V: induces stimulation of the synthesis of collagen I and V with a significant dose effect
[1]; Example 6, ascorbic acid at 50 μM, vegetable extract 1% (v/v)
  amount of collagen I in the ECM: significant increase
[1]; [6]
  Coll I Mean: 74156
  Ratio: Coll I/DNA Mean: 233.65
  Stat Mean (Coll I/DNA, control = 100.00): 105.33
[1]; ascorbic acid 1 μM, Example 4
  Coll I Mean: 74419
  Ratio: Coll I/DNA Mean: 246.46
  Stat Mean (Coll I/DNA, control = 100.00): 111.10
[1]; ascorbic acid 5 μM, Example 5
  Coll I (RFU) Mean: 59802 RFU
  Ratio: Coll/DNA Mean (Coll I): 273.40
  Versus control Mean (Coll I): 125.69
[1]; ascorbic acid 10 μM, Example 5
  Coll I (RFU) Mean: 59569 RFU
  Ratio: Coll/DNA Mean (Coll I): 239.53
  Versus control Mean (Coll I): 110.12
[1]; ascorbic acid 10 μM, Example 4
  Coll I Mean: 78694
  Ratio: Coll I/DNA Mean: 280.82
  Stat Mean (Coll I/DNA, control = 100.00): 126.59
[1]; ascorbic acid 25 μM, Example 5
  Coll I (RFU) Mean: 59088 RFU
  Ratio: Coll/DNA Mean (Coll I): 254.84
  Versus control Mean (Coll I): 117.16
[1]; ascorbic acid 50 μM, Example 5
  Coll I (RFU) Mean: 54454 RFU
  Ratio: Coll/DNA Mean (Coll I): 309.87
  Versus control Mean (Coll I): 130.66
[1]; ascorbic acid 50 μM, Example 4
  Coll I Mean: 79146
  Ratio: Coll I/DNA Mean: 284.31
  Stat Mean (Coll I/DNA, control = 100.00): 128.17
[1]; [7]
  Coll I (RFU) Mean: 50765 RFU
  Ratio: Coll/DNA Mean (Coll I): 249.31
  Versus control Mean (Coll I): 114.62
[1]; [8]
  Coll I Mean: 79796
  Ratio: Coll I/DNA Mean: 273.96
  Stat Mean (Coll I/DNA, control = 100.00): 123.50
[2]; ascorbic acid 5 μM
  Ratio: Coll/DNA Mean (Coll V): 59.83
  Coll V (RFU) Mean: 12644 RFU
  Versus control Mean (Coll V): 117.16
[2]; ascorbic acid 10 μM
  Ratio: Coll/DNA Mean (Coll V): 58.76
  Coll V (RFU) Mean: 14127 RFU
  Versus control Mean (Coll V): 115.06
[2]; ascorbic acid 25 μM
  Ratio: Coll/DNA Mean (Coll V): 68.69
  Coll V (RFU) Mean: 16172 RFU
  Versus control Mean (Coll V): 134.49
[2]; ascorbic acid 50 μM
  Ratio: Coll/DNA Mean (Coll V): 68.86
  Coll V (RFU) Mean: 16230 RFU
  Versus control Mean (Coll V): 134.82
[2]; ascorbic acid 100 μM
  Ratio: Coll/DNA Mean (Coll V): 73.12
  Coll V (RFU) Mean: 17994 RFU
  Versus control Mean (Coll V): 143.17
[3]; 50 μM, Example 7
  Procoll (ng/ml) Mean: 1983 ng/mL
  Ratio: Procoll/DNA Mean: 4.01
[3]; 50 μM, Example 7, control = 100
  Versus control Mean (ProColl/DNA): 171.17
[3]; ascorbic acid 0.1 μM
  Procoll Mean (extracellular procollagen): 1987 ng/mL
  Ratio: Procoll/DNA Mean: 6.26
  Stat Mean (Procoll/DNA, control = 100.00): 100.75
[3]; ascorbic acid 1 μM
  Procoll Mean (extracellular procollagen): 1983 ng/mL
  Ratio: Procoll/DNA Mean: 6.57
  Stat Mean (Procoll/DNA, control = 100.00): 105.74
[3]; ascorbic acid 10 μM
  Procoll Mean (extracellular procollagen): 2756 ng/mL
  Ratio: Procoll/DNA Mean: 9.83
  Stat Mean (Procoll/DNA, control = 100.00): 158.16
[3]; ascorbic acid 50 μM
  Procoll Mean (extracellular procollagen): 2852 ng/mL
  Ratio: Procoll/DNA Mean: 10.25
  Stat Mean (Procoll/DNA, control = 100.00): 164.89
[3]; ascorbic acid 100 μM
  Procoll Mean (extracellular procollagen): 2845 ng/mL
  Ratio: Procoll/DNA Mean: 9.78
  Stat Mean (Procoll/DNA, control = 100.00): 157.30
[4]; Example 4
  procollagen concentration in the intracellular compartment: less than that observed with the untreated control
[4]; ascorbic acid 0.1 μM
  Procoll Mean (intracellular procollagen): 116 ng/mL
  Ratio: Procoll/DNA Mean: 0.37
  Stat Mean (Procoll/DNA, control = 100.00): 102.85
[4]; ascorbic acid 1 μM
  Procoll Mean (intracellular procollagen): 108 ng/mL
  Ratio: Procoll/DNA Mean: 0.36
  Stat Mean (Procoll/DNA, control = 100.00): 100.76
[4]; ascorbic acid 10 μM
  Procoll Mean (intracellular procollagen): 114 ng/mL
  Ratio: Procoll/DNA Mean: 0.41
  Stat Mean (Procoll/DNA, control = 100.00): 108.02
[4]; ascorbic acid 50 μM
  Procoll Mean (intracellular procollagen): 60 ng/mL
  Ratio: Procoll/DNA Mean: 0.22
  Stat Mean (Procoll/DNA, control = 100.00): 60.83
[4]; ascorbic acid 100 μM
  Procoll Mean (intracellular procollagen): 66 ng/mL
  Ratio: Procoll/DNA Mean: 0.23
  Stat Mean (Procoll/DNA, control = 100.00): 63.69
Normal human fibroblasts; 50 μM, Example 6 and 7
  DNA Mean: 497.4 and 497.3
Normal human fibroblasts; [6]
  DNA Mean: 318
Normal human fibroblasts; ascorbic acid 1 μM, Example 4
  DNA Mean: 303
Normal human fibroblasts; ascorbic acid 5 μM, Table 5.3
  DNA Mean: 220
Normal human fibroblasts; ascorbic acid 5 μM, Table 5.4
  DNA Mean: 212
Normal human fibroblasts; ascorbic acid 10 μM, Example 4
  DNA Mean: 281
Normal human fibroblasts; ascorbic acid 10 μM, Table 5.3
  DNA Mean: 249
Normal human fibroblasts; ascorbic acid 10 μM, Table 5.4
  DNA Mean: 241
Normal human fibroblasts; ascorbic acid 25 μM, Table 5.3
  DNA Mean: 232
Normal human fibroblasts; ascorbic acid 25 μM, Table 5.4
  DNA Mean: 236
Normal human fibroblasts; ascorbic acid 50 μM, Example 4
  DNA Mean: 279
Normal human fibroblasts; ascorbic acid 50 μM, Table 5.3
  DNA Mean: 180
Normal human fibroblasts; ascorbic acid 50 μM, Table 5.4
  DNA Mean: 236
Normal human fibroblasts; [8]
  DNA Mean: 291
Normal human fibroblasts; ascorbic acid 100 μM, Table 5.3
  DNA Mean: 204
Normal human fibroblasts; ascorbic acid 100 μM, Table 5.4
  DNA Mean: 246
Collagen I
  Area/cells % (control = 100): 114.96%
  Area/cells Mean (collagen I fluorescence): 124238.13

## CCNCC [Diethylamine, diethylamine]
[5]
  Ratio: Coll/DNA % (NH4OH = 100): 17.33%

## CCN [Monoethylamine, monoethylamine]
[5]
  Ratio: Coll/DNA % (NH4OH = 100): 23.78%

## N [NH4OH, ammonium hydroxide]
[5]; NH4OH 200 μM
  Ratio: Coll/DNA % (20 mM = 100.00): 117.43%
[5]; NH4OH 2 mM
  Ratio: Coll/DNA % (20 mM = 100.00): 131.56%
[5]; NH4OH 20 mM
  Ratio: Coll/DNA % (20 mM = 100.00): 100.00%
[5]; NH4OH 200 mM
  Ratio: Coll/DNA % (20 mM = 100.00): 86.47%
[5]; NH4OH 2M
  Ratio: Coll/DNA % (20 mM = 100.00): 67.67%
[5]
  Ratio: Coll/DNA % (NH4OH = 100): 100%

## CCN(CC)CC [Triethylamine, triethylamine]
[5]
  Ratio: Coll/DNA % (NH4OH = 100): 21.13%
